# Laboratory results reported in patent US20190307754A1, “PDE9 INHIBITORS FOR TREATMENT OF PERIPHERAL DISEASES” (IMARA, INC., priority 2016, published 2019).
# “Also recorded” adds a separate entry of the source. Marks after values point to notes of the source that are not given here.
# How the values were obtained:
# [1] = tested on: CYP1A2; test: CYP induction in human hepatocytes, CYP1A2; type: in vitro ADME
# [2] = tested on: HbSS-Townes mice; test: Microvascular stasis and hematology in HbSS-Townes mice; type: in vivo
# Description: The ability of Compound P3.1 to reduce vaso-occulsion was assessed in HbSS-Townes transgenic sickle mice after transient hypoxia and re-oxygenation. This study assessed the effects of repeated (10 days) oral dosing of Compound P3.1 and HU on microvascular stasis and other hematological markers of sickle cell disease, after transient hypoxia and re-oxygenation, in Townes transgenic sickle mice, a mouse model of sickle cell disease (Hba^tm1(HBA)Tow Hbb^tm2(HBG1,HBB*)Tow/Hbb^tm3(HBG1,HBB)Tow/J). HbSS-Townes mice were divided into groups of 3 mice and were then dosed orally via drinking water with Compound P3.1 at 10 mg/kg/day, Compound P3.1 at 30 mg/kg/day, HU (100 mg/kg/day), or a combination of Compound P3.1 and HU (at doses of 30 and 100 mg/kg/day, respectively) for 10 days. A final group received water containing 0.08% methylcellulose, the vehicle used to prepare the test items, and served as controls. On Day 7 of treatment, the mice were implanted with dorsal skin-fold chambers (DSFC), and on Day 10 of treatment, 20-23 flowing subcutaneous venules in the DSFC window were selected and mapped. After venule selection and mapping, mice were placed in a chamber and exposed to a hypoxic atmosphere (7% O2/93% N2) for 1 hour, after which they were returned to room air. All of the selected venules were re-examined after 1 and 4 hours of re-oxygenation in room air and the number of static (no flow) venules was counted and expressed as percent stasis. On completion of these measurements, blood was collected for clinical pathology with a focus on hematological measures associated with sickle cell disease.
# [3] = tested on: rat; test: In vivo rat micronucleus study
# Description: (§1) The genotoxicity evaluation of Compound P3.1 consisted of a bacterial reverse mutation assay, a chromosome aberration study, and a in vivo rat micronucleus study. Compound P3.1 was negative in all 3 assays.
# [4] = Stability study of drug substance (ambient and 40-45 °C); type: physicochemical; conditions: ambient temperature and 40° C.−45° C., 3-month period
# Description: A stability study has been completed on Compound P3.1. Samples of Compound P3.1 were aliquoted into double-walled polyethylene pouches, which were tied off and then heat-sealed in an aluminum pouch. Samples were stored at ambient temperature and at 40° C.−45° C. (no humidity control) with testing performed over a 3-month period.
# [5] = target: hERG-mediated potassium currents (Homo sapiens, UniProt Q12809); test: in vitro hERG assay; type: cell-based; conditions: concentrations up through 10^−5 M
# Description: (§2) The safety pharmacology assessment of Compound P3.1 included an in vitro hERG assay, neurofunctional and respiratory studies in rats, and a cardiovascular study in beagle dogs.
# [6] = Metabolic stability (intrinsic clearance) in liver microsomes; type: in vitro ADME, mouse, rat, dog, monkey, and human
# [7] = Plasma protein binding, rat; type: in vitro ADME; conditions: read-out: mean plasma fraction bound (converted)
# [8] = Pharmacokinetics of single oral and IV dose in Sprague Dawley rats; type: in vivo
# Description: (§3) Blood samples were taken at 2 minutes (IV only), then 8, 15, 30 minutes, and 1, 2, 4, 8, and 24 hours after dosing and analyzed for key PK parameters. In the rats, brain samples were taken at 24 hours and analyzed for Compound P3.1. To evaluate the penetration of Compound P3.1 across the blood-brain barrier (BBB), 10 additional rats received IV Compound P3.1 3 mg/kg and plasma and brain concentrations of Compound P3.1 were determined from 2 animals at 15 minutes, 30 minutes and 1, 2, and 4 hours after dosing.
# [9] = in vivo; type: in vivo; conditions: rat, in vivo, 1000 mg/kg; read-out: plasma exposure (AUC0-24)
# Description: as §2
# (§4) The death was considered test article related. […]
# [10] = tested on: rat; test: in vivo; type: in vivo
# Description: as §2, §4
# [11] = tested on: Berkeley sickle cell transgenic mice; test: HbF positive and sickled red blood cells in Berkeley sickle cell transgenic mice; type: in vivo; conditions: 30 mg/kg/day Compound P3.1 or 100 mg/kg/day HU, gavage, 30 days
# Description: This study assessed the effects of chronic dosing (30 day) of Compound P3.1 and HU on HbF and cell sickling in a mouse model of sickle cell disease. Berkeley sickle cell transgenic mice (Hbatm1PazHbbtm1Tow Tg(HBA-HBBs)41Paz/J) were divided into groups of 7 to 8 animals and were dosed once daily, by gavage, for 30 days with either vehicle (PEG:water), 30 mg/kg/day of Compound P3.1, or 100 mg/kg/day of HU. This mouse genotype mimics the genetic, hematologic and histopathologic features that are found in humans afflicted with sickle cell anemia, including irreversibly sickled RBCs, anemia and multi-organ pathology. Blood was collected from treated animals on Day 30 for limited routine hematology as well as derivation of the percent of sickled and HbF positive RBCs and total bilirubin. At termination, the spleen was removed and weighed.
# [12] = Chromosome aberration study; type: cell-based
# Description: as §1
# [13] = Pharmacokinetics of single oral and IV dose in CD1 mice; type: in vivo
# Description: as §3
# [14] = Compound P3.1 30 mg/kg/day, HU 100 mg/kg/day, or both, 10 days
# [15] = Sprague Dawley rats, 10 mg/kg oral
# [16] = rat, blood, Sprague Dawley rats, 3 mg/kg IV
# [17] = rat, blood, Sprague Dawley rats, 10 mg/kg oral
# [18] = mouse, blood, CD1 mice, 3 mg/kg IV
# [19] = mouse, blood, CD1 mice, 10 mg/kg oral
# Sequence of hERG-mediated potassium currents (Q12809 whole entry): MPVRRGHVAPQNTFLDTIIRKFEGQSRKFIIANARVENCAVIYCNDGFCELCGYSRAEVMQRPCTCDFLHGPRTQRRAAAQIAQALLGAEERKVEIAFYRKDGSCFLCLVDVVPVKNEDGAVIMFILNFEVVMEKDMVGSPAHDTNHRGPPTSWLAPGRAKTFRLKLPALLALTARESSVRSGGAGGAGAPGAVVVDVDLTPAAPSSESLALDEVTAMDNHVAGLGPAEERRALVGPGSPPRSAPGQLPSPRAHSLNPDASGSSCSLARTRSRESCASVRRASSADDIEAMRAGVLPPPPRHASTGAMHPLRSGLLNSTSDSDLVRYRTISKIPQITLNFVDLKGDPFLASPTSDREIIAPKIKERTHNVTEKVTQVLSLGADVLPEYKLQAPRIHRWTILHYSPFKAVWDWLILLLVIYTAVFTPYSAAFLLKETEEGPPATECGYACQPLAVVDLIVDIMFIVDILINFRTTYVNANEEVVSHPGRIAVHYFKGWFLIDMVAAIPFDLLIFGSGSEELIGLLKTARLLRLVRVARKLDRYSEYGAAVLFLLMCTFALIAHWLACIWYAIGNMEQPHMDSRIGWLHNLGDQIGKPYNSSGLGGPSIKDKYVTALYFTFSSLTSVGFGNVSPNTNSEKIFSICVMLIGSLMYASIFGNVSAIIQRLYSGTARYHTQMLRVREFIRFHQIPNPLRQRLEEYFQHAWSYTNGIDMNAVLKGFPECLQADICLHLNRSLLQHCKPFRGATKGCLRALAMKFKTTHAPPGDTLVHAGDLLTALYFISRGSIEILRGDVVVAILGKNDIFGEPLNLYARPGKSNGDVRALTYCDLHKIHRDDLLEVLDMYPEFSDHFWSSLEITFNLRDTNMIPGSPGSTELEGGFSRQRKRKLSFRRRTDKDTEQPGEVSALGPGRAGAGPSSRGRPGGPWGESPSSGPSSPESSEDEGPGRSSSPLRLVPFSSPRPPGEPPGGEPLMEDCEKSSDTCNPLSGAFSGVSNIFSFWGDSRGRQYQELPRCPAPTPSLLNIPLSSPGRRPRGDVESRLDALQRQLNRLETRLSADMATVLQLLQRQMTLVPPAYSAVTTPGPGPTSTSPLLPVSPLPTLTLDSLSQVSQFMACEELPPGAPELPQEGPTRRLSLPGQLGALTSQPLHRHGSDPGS
compound,measurement,setting,value
"C[C@@H]1CN(Cc2ncccn2)C[C@H]1c1cn2c(C3CCOCC3)ncc2c(=O)[nH]1 (single isomer, unassigned) [Compound P3.1]",induction of CYP1A2,[1],no potential for induction
same,microvascular stasis,"[2]; 10 mg/kg/day, 10 days, 1-hour time point",reduced stasis statistically significantly
same,microvascular stasis,"[2]; 10 mg/kg/day, 10 days, 4 hours",not at 4 hours
same,microvascular stasis,"[2]; 30 mg/kg/day Compound P3.1 or 100 mg/kg HU, drinking water, 10 days, 1 and 4 hours post hypoxia",statistically significant reductions in stasis
same,total WBC numbers,"[2]; Compound P3.1 30 mg/kg/day or HU 100 mg/kg/day, 10 days",reduce total WBC numbers
same,vessel occlusion induced by transient hypoxia and re-oxygenation,"[2]; Compound P3.1 30 mg/kg/day, HU 100 mg/kg/day, or both",effectively reduced
same,number of HbF positive red cells,[2]; [14],increase the number of HbF positive red cells
same,proportion of sickled RBCs,[2]; [14],reduce the proportion of sickled RBCs
same,"genotoxicity, in vivo rat micronucleus study",[3],negative
same,stability: appearance and purity of drug substance,[4],no changes to appearance or purity
same,inhibitory effect on hERG-mediated potassium currents,[5],did not have an inhibitory effect; also recorded: no inhibitory effect
same,metabolic stability,"[6]; mouse, rat, dog, monkey, and human liver microsomes",highly stable
same,intrinsic clearance in liver microsomes,[6]; presence or absence of NADPH,minimal intrinsic clearance
same,fraction unbound,[7],0.748
same,Cl_obs,"[8]; Sprague Dawley rats, 3 mg/kg IV",16.2 mL/min/kg
same,Flast,[8]; [15],44.6%
same,Vss obs,[8]; [15],44.6 L/kg
same,bioavailability,"[8]; Sprague Dawley, rat, plasma, po, 10 mg/kg, read-out: oral bioavailability Flast",63.4%
same,AUC(0-t),[8]; [16],3110 ng·h/mL
same,C0,[8]; [16],4820 ng/mL
same,MRT,[8]; [16],86.4 min
same,half-life,[8]; [16],169 min
same,Vd,"[8]; rat, blood, Sprague Dawley rats, 3 mg/kg IV, read-out: Vss obs",1.65 L/kg
same,AUC(0-t),[8]; [17],4620 ng·h/mL
same,C0,[8]; [17],1110 ng/mL
same,Tmax,[8]; [17],60 min
same,half-life,[8]; [17],181 min
same,continuously exposed out to,"[8]; rats, 10 mg/kg oral",8 h
same,AUC(0-t),[9],> 500000 ng·h/mL
same,mortality,"[10]; 1000 mg/kg, approximately 4.8 hours after dosing",One male rat was found dead
same,exposure relative to anticipated efficacious dose,"[10]; rat, in vivo",approximately 48 fold
same,respiratory functions,"[10]; rat, in vivo, po, 1000 mg/kg",transient increases in respiratory rate and tidal volume
same,"RBC count, hemoglobin concentration or hematocrit",[11],not associated with any apparent alterations
same,neutrophil levels,[11],reduced neutrophil levels
same,spleen weight,[11],statistically significant decreases
same,total bilirubin,[11],statistically significant decreases
same,total leucocyte count,[11],statistically significant decreases
same,percentage of HbF positive RBCs,[11]; vs controls,increases in the percentage of HbF positive RBCs
same,percentage of sickled RBCs,[11]; vs controls,statistically significant decreases in the percentage of sickled RBCs
same,"genotoxicity, chromosome aberration study",[12],negative
same,bioavailability,"[13]; CD1, mouse, plasma, po, 10 mg/kg, read-out: oral bioavailability Flast",44.6%
same,Cl_obs,"[13]; CD1 mice, 3 mg/kg IV",30.7 mL/min/kg
same,Flast,"[13]; CD1 mice, 10 mg/kg oral",63.4%
same,Vss obs,"[13]; CD1 mice, 10 mg/kg oral",63.4** L/kg
same,continuously exposed out to,"[13]; mice, 10 mg/kg oral",4 h
same,AUC(0-t),[13]; [18],1630 ng·h/mL
same,C0,[13]; [18],4430 ng/mL
same,MRT,[13]; [18],26.4 min
same,half-life,[13]; [18],37.8 min
same,Vd,"[13]; mouse, blood, CD1 mice, 3 mg/kg IV, read-out: Vss obs",0.89 L/kg
same,AUC(0-t),[13]; [19],3440 ng·h/mL
same,C0,[13]; [19],2750 ng/mL
same,Tmax,[13]; [19],30 min
same,half-life,[13]; [19],48.6 min
